Series [1] is described as follows: Fluorescent spectrum: incorporation of hydrophobic environmental probe ANS-Na into hydrogel. It counts as physicochemical. As to conditions: 10 μM ANS-Na, 1 mM Eg3C8U aqueous solution. As to the method: Using ANS-Na (8-anilino-1-naphthalene sulfonic acid sodium salt) known as a hydrophobic environmental probe, the hydrogel was tested for incorporation of a fluorescent substance thereinto.

The nature of series [2]: Confirmation of formation of hydrogel (gelling when heated in water). It counts as physicochemical. Here is the method:
Two ml of deionized water was added to 1 mg of the compound (8), which was dissolved by ultrasonication with cooling in an ice bath. With gradually heating up to room temperature, this was statically left as such for 30 minutes.

In the case of `COCCOCCOCCOCCCCCCNC(=O)Nc1cc(NC(=O)NCCCCCCOCCOCCOCCOC)cc(NC(=O)NCCCCCCOCCOCCOCCOC)c1` [compound (8), 1,1′,1″-(benzene-1,3,5-triyl)tris{3-(2,5,8,11-tetraoxaheptadecan-17-yl)urea}], the “fluorescence of ANS-Na in hydrogel versus aqueous solution” value in series [1] was “fluorescent intensity increased in the hydrogel and was shifted to the short wavelength side”. Also, the hydrogel formation entry in series [2] (1 mg in 2 ml deionized water, transparent solution at 0° C., heated up to room temperature, left 30 minutes) is “formed a hydrogel”. This molecule also returned a lowermost gelling concentration in series [2] (in water, gels when heated) of 0.05 wt. %.

For the origin of these results see US8772540B2, “Thermal responsive molecule” (Kyushu University, National University Corporation, priority 2009, dated 2014).
